Data as given in a melting point compilation (Tetko et al.; mined from patent text by program, amines drawn as free bases though some values may be those of a salt).

| Structure (SMILES) | melting point |
| --- | --- |
| O=C1NCC(CCc2ccccc2Cl)O1 (configuration not stated) | 74 to 75 °C |
| CC(C)(C)c1cc(SCCC=O)cc(C(C)(C)C)c1O | 64 to 65 °C |
| Cc1ccc2c(c1)nnn2C(=O)N(c1ccccc1)c1ccccc1 | 132 to 133 °C |
| CC(C)(C)c1n[nH]c(SCCNC(=O)Nc2ccc(C(F)(F)F)cc2)n1 | 238 to 240 °C |
| CC(C)(O)CC(O)=C(C#N)CC(=O)Nc1ccccc1 | 103 °C |
| COc1cccc2c1C(=O)c1c(OC)cc(-c3nnn[nH]3)cc1C2=O | 262 to 264 °C |
| CCOC(=O)[C@@H](O)[C@@H]1OC(=O)c2ccc(OC)cc21 | 121 to 122 °C |
| CC(=O)c1cccc2cc[nH]c12 | 65 to 66 °C |
| O=CC(Cc1ccccc1)N1C(=O)c2ccccc2C1=O (configuration not stated) | 115 to 117 °C |
| C=CC(=O)NC[C@H](O)[C@@H](O)[C@H](O)[C@H](O)CO | 122 to 123 °C |
| O=C(O)CC(c1ccccc1)C(F)(F)F (configuration not stated) | 72 °C |
| CCCC[C@@]1(O)CCC[C@@]2(C)CC[C@@H]3C[C@@]21OC3(C)C | 90 to 92 °C |
| N#CCC12CC(c3ccccc31)c1ccccc12 | 130 to 131 °C |
| CN(SN1CCOCC1)C(=O)ON=C1SCC(=O)NC1(C)C | 180 to 182 °C |
| CCOC(=O)C(=O)Nc1sc(C(=O)OCC)c(CC)c1[N+](=O)[O-] | 70 to 73 °C |
| N#CC1(C#N)CN=C(O)C(c2cc(O)c(O)c([N+](=O)[O-])c2)=N1 | > 300 °C |
| CC1Oc2ccc(Cl)cc2N(CC(O)CO)C1=O (configuration not stated) | 88 °C |
| CCCCc1c(/C=C/C(=O)O)cc(OC)c2ccccc12 | 166 to 167 °C |
| CC(O)Cc1cccc(S(N)(=O)=O)c1 (configuration not stated) | 149 to 150 °C |
| CN(N)C(=O)NCC(F)F | 81 to 84 °C |
| CCC1(CC)OC(=S)Nc2ccc(-c3cccc([N+](=O)[O-])c3)cc21 | 180 to 181 °C |

| Structure (SMILES) | melting point |
| --- | --- |
| CCC1(CC)OC(=O)Nc2ccc(/C(=C/C#N)C(C)C)cc21 | 138 to 140 °C |
| Cc1cc(Cl)ccc1N=CN(C)SN(Cc1ccccc1)Cc1ccccc1 | 97 to 99 °C |
| COc1c(S(=O)(=O)Cl)ccc(Cl)c1CBr | 88 to 92 °C |
| O=C(O)CCC(=O)c1ccc(-n2cncn2)cc1 | 234 to 235 °C |
| CCCN1C=CSC1S(=O)(=O)N=NC(=O)Nc1nc(OC)cc(OC)n1 (configuration not stated) | 166 to 167 °C |
| COc1cccc(C(F)(F)F)c1C(=O)O | 129 to 130 °C |
| O=C(O)COc1cc2c(c(Cl)c1Cl)C(=O)C(C1CCCC1)C2 (configuration not stated) | 184 to 186 °C |
| CS(=O)(=O)OCCc1ccc([N+](=O)[O-])cc1COS(C)(=O)=O | 83 to 85 °C |
| CCCCCc1ccc(-c2ccc(C(C)OC(=O)CCC)cc2)cc1 (single isomer, unassigned; (+)) | 38.1 °C |
| CN(C)S(=O)c1nc2ccccc2s1 (configuration not stated) | 121 to 122 °C |
| CCNC(=Nc1ccccc1N1CCOCC1)NCC | 101 to 102 °C |
| Cc1cccc(C)c1N(CCCC(=O)N[C@@H](C)C(=O)O)C(=O)c1ccc(Cl)cc1 | 159 to 161 °C |
| CCc1cc([N+](=O)[O-])c(NC(CC)COC)c([N+](=O)[O-])c1COC (configuration not stated) | 54 to 55 °C |
| CC(=O)Oc1cc2occ(C=O)c(=O)c2cc1OC(C)=O | 133 to 135 °C |
| CC(C)Cn1c(CN)nc2c(N)nc3ccccc3c21 | 287 to 291 °C |
| NC(c1ccccc1)c1ccc(C(N)c2ccc(C(N)c3ccccc3)cc2)cc1 (configuration not stated) | 182 to 185 °C |
| COc1cc(C)nc(-n2ccnc2)n1 | 53 to 54 °C |
| CCn1nc(C)c2c1C(=O)NCC(c1ccccc1O)=N2 | 220 °C |
| COc1cc(S(=O)(=O)c2ccccc2)ccc1N | 149 to 150 °C |
| ClC1=Nc2cc(Cl)ccc2Sc2cscc21 | 234 to 235 °C |
| CN(C)c1cc(CO)ncc1F | 80 to 82 °C |

Results, then the compound that gave them:

| melting point | Structure (SMILES) |
| --- | --- |
| 219 to 221 °C | O=C(CCCc1ccccc1)NCC(=O)N1c2ccccc2N(Cc2ccccc2)C(=O)[C@H]2CCC[C@H]21 (relative stereo) |
| 125 to 134 °C | c1coc(CNCc2ccc(-c3cc4ncnc(Nc5ccc6[nH]ccc6c5)c4s3)cc2)c1 |
| 168 to 169 °C | COc1ccc2c(c1)C(c1ccccc1)NC(=O)N2CC(F)(F)F (configuration not stated) |
| 256 to 257 °C | O=C1NCCN1c1ccc(S(=O)(=O)Nc2ccc(C3CCCCC3)cc2)cc1 |
| 181 to 182 °C | CCCOc1ccc(/C=C/C(=O)OC(C)(C)C)cc1-c1nc2c(c(C)nn2CCC)c(=O)[nH]1 |
| 167 to 180 °C | COc1cc(C2Oc3cc(C4Oc5cc(O)cc(O)c5C(=O)C4O)ccc3OC2CO)ccc1O (configuration not stated) |
| 136 to 137 °C | COC(=O)Cc1cc2cc(O)ccc2s1 |
| 60 °C | C#CCOC(=O)Oc1ccc(Cc2ccc(OC(=O)OCC#C)cc2)cc1 |
| 149 to 151 °C | O=C(Nc1cc2ncc(CN3CCCC3)cc2cc1F)c1ccc(Br)cc1F |
| 161 to 162 °C | CC(C(=O)O)c1ccc2c(c1)Sc1ncccc1CC2 (configuration not stated) |
| 300 °C | O=c1c2c(-c3ccc(F)cc3)n[nH]c2c2cccnc2n1-c1ccccc1 |
| 271 to 273 °C | c1ccc2c(c1)ccc1c(-c3ccncc3)[nH]nc12 |
| 155 to 156 °C | CC1OC(=O)Nc2ccc(-c3cccc(Cl)c3)cc21 (configuration not stated) |
| 119 to 120 °C | CCCCCN1CCN(c2cccc3c2C[C@H](NC(C)=O)CC3)CC1 |
| 161 to 163 °C | CCn1ncnc1COc1nc2c(cc1C(C)(C)C)nnn2-c1ccccc1 |
| 88 to 90 °C | O=C1CCCc2ccc(OCCCC(=O)N3CCOCC3)cc21 |
| 254 to 255 °C | O=C(O)c1ccc(-c2nnc(-c3ccc(C(F)(F)F)cc3)o2)c([N+](=O)[O-])c1 |
| 198 to 200 °C | CN(C)C(=O)n1nc(NC=O)c2cc(C(F)(F)F)ccc21 |
| 222 to 223 °C | O=C(NCc1ccccn1)Nc1cc(NC(=O)c2ccccc2)ccn1 |
| 52 °C | CCOC(=O)c1cc(Oc2ccccc2)ccc1OC |

| melting point | Structure (SMILES) |
| --- | --- |
| 214 to 215 °C | CCN(CC)c1ccc2c(c1)OC(C(F)(F)F)C(C(=O)O)=C2 (configuration not stated) |
| 164 to 166 °C | COC(=O)c1cc(C(=O)NNC(=O)c2ccccn2)c2cc(Cc3ccc(F)cc3)cnc2c1O |
| 118 to 120 °C | CC(C)N1CCC(CNc2ccc(Cl)cc2C(=O)Nc2ccccn2)CC1 |
| 152 to 153 °C | O=C(O)CCC(=NO)c1ccc(-c2ccc(F)cc2)cc1 |
| 158 to 159 °C | CC12CCC(=O)C=C1CCCC2n1cc(-c2ccccc2)nn1 (configuration not stated) |
| 88 °C | O=C(CCCCCN1CCN(c2cccc(C(F)(F)F)c2)CC1)N1Cc2ccc(OCCN3CCCCC3)cc2C1 |
| 138 to 140 °C | COc1ccc(C2CCN(c3c(C)c(C)c4c(c3C)C(Nc3ccccc3)C(C)(C)O4)CC2)cc1OC (configuration not stated) |
| 117 to 120 °C | CC(C)CCOc1c(-c2ccc(S(C)(=O)=O)cc2)cnn(-c2ccc(F)cc2)c1=O |
| 261 to 263 °C | Cc1cc(C)nc(S(=O)(=O)Nc2c(Cl)cccc2Cl)n1 |
| 195 to 196 °C | COC(=O)c1cc(N)c(Oc2cc(C)cc(C)c2)c(S(N)(=O)=O)c1 |
| 155 to 158 °C | COc1cc(OC)c(N2CCCC2)cc1/C=C/C(=O)c1ccc(S(=O)(=O)NCC(=O)O)cc1 |
| 110 °C | CCOC(=O)C(C)Oc1ccc(Oc2cnc3cc(Cl)ccc3n2)cc1F (configuration not stated) |
| 87 to 88 °C | OCc1cnoc1-c1ccc(Cl)c(F)c1 |
| 52.7 °C | CCCc1cnc(-c2ccc(F)cc2)nc1 |
| 100 to 102 °C | COc1cc2cc(COCC(=O)N3CCN(C)CC3)c(CO)c(-c3ccnc(-n4c(=O)ccc5ccccc54)c3)c2cc1OC |
| 172 °C | Cc1nc2ccc(NC(=O)CC34CC5CC(CC(C5)C3)C4)cc2s1 |
| 145 °C | CCCS(=O)(=O)Nc1ccc(C(=O)c2nc(-c3cccc(C(=O)O)c3)c3ccccn23)cc1OC |
| 219 to 221 °C | O=C(c1ccc2c(c1)[C@@H](O)[C@H](Br)CCO2)c1ccccc1F (relative stereo) |
| 190 to 191 °C | COc1cc(C2C3=C(COC3=O)Nc3ccc4nc(C)sc4c32)ccc1[N+](=O)[O-] (configuration not stated) |
| 125 to 127 °C | O=c1oc(-c2cccc(Cl)c2)cc(O)c1SCCc1ccccc1 |

| melting point | Structure (SMILES) |
| --- | --- |
| 118 to 120 °C | CCCCN1CCN(c2cccc3c2C[C@H](NC(C)=O)CC3)CC1 |
| 62 to 64 °C | O=C(c1ccccc1Cl)c1ccccc1I |
| 137 °C | COc1nc(C(F)(F)F)cc(=O)n1-c1cc(OC(C)C)c(Br)cc1F |
| 203 °C | O=[N+]([O-])c1cc2cc(Br)ccc2nc1Cl |
| 236 to 237 °C | Cc1cccc(C(=O)NC(Nc2c(Nc3cccnc3)c(=O)c2=O)C(C)(C)C)c1 (configuration not stated) |
| 199 °C | O=Cc1c2ccccc2cc2c1sc1ccccc12 |
| 189 to 191 °C | COc1cc2c(c3c1OC(C)(C)C3)C(c1cccc(NC(=O)Nc3ccccn3)c1)=NC(C)(C)C2 |
| 103 to 105 °C | COC(=O)Cc1c(C)n(-c2ccnc3ccccc23)c2ccc(OC)cc12 |
| 134 to 136 °C | O=C(NCc1ccc(C(=O)C(F)(F)F)cc1)c1cccnc1Oc1cccnc1 |
| 154 to 158 °C | Cc1ccc(NC(=O)c2ccc(CN3CC[N+](C)([O-])CC3)cc2)cc1Nc1nccc(-c2cccnc2)n1 |
| 192 to 193 °C | CNc1coc2cc(NS(C)(=O)=O)c(Oc3ccccc3)cc2c1=O |
| 128 to 129 °C | CCC(CC)(CC(=O)Nc1cccc(OCc2ccc3cccc(F)c3n2)c1)C(=O)O |
| 133 to 134 °C | N#CCCNC(=O)c1cccc(-c2cccc3nn(Cc4ccc(F)cc4)cc23)c1 |
| 90 to 92 °C | COc1ccc(-c2cc(Cl)c3ccccc3n2)cc1C |
| 152 to 153 °C | COc1ccc2cc([C@H](C)C(=O)NOCC(=O)O)ccc2c1 |
| 174 to 175 °C | CC1(CO)COC(Cn2ccnc2)(c2ccc(Cl)cc2Cl)OC1 (configuration not stated) |
| 151 to 152 °C | O=c1c(N2CCCNCC2)nc2cc(F)ccc2n1-c1ccccc1 |
| 156 to 157 °C | COc1ccc(C(=O)Cc2c(Cl)cncc2Cl)c2c1OC(c1ccccc1)(c1ccccc1)O2 |
| 130 to 131 °C | O=C(NCCN1CCN(C(c2ccccc2)c2cccnc2)CC1)C1CSC(c2cccnc2)N1 (configuration not stated) |
| 108 to 109 °C | O=C(NCCCOc1ccncc1)c1ccccc1CO |
